Results from a compilation of properties of binary mixtures (doi:10.1016/j.molliq.2022.118933).

Test: xn = mol fraction of the nth substance listed
Conditions: 100 kPa

CCCC[N+](C)(C)C[c-]1cccc1.O=S(=O)([N-]S(=O)(=O)C(F)(F)F)C(F)(F)F.[Fe+2].c1cc[cH-]c1 + CC#N
Conditions | electrical conductivity [S/m]
298 K, x1 = 0.01 | 1.35
298 K, x1 = 0.02 | 1.89
298 K, x1 = 0.05 | 2.2
298 K, x1 = 0.06 | 2.14
298 K, x1 = 0.07 | 2.07
298 K, x1 = 0.08 | 1.96
298 K, x1 = 0.1 | 1.8
298 K, x1 = 0.12 | 1.45
298 K, x1 = 0.15 | 1.17
298 K, x1 = 0.2 | 0.759
303 K, x1 = 0.01 | 1.41
303 K, x1 = 0.02 | 1.98
303 K, x1 = 0.03 | 2.28
303 K, x1 = 0.05 | 2.32
303 K, x1 = 0.06 | 2.28
303 K, x1 = 0.07 | 2.2
303 K, x1 = 0.08 | 2.07
303 K, x1 = 0.12 | 1.57
303 K, x1 = 0.15 | 1.24
303 K, x1 = 0.2 | 0.843
308 K, x1 = 0.01 | 1.47
308 K, x1 = 0.02 | 2.06
308 K, x1 = 0.03 | 2.39
308 K, x1 = 0.05 | 2.45
308 K, x1 = 0.06 | 2.41
308 K, x1 = 0.07 | 2.33
308 K, x1 = 0.1 | 2.01
308 K, x1 = 0.12 | 1.7
308 K, x1 = 0.15 | 1.36
313 K, x1 = 0.01 | 1.53
313 K, x1 = 0.02 | 2.15
313 K, x1 = 0.03 | 2.5
313 K, x1 = 0.05 | 2.57
313 K, x1 = 0.06 | 2.54
313 K, x1 = 0.08 | 2.34
313 K, x1 = 0.1 | 2.14
313 K, x1 = 0.12 | 1.81
313 K, x1 = 0.15 | 1.46
313 K, x1 = 0.2 | 1.04
318 K, x1 = 0.02 | 2.23
318 K, x1 = 0.03 | 2.6
318 K, x1 = 0.05 | 2.7
318 K, x1 = 0.07 | 2.61
318 K, x1 = 0.1 | 2.28
318 K, x1 = 0.12 | 1.94
323 K, x1 = 0.02 | 2.33
323 K, x1 = 0.03 | 2.71
323 K, x1 = 0.05 | 2.82
323 K, x1 = 0.06 | 2.8
323 K, x1 = 0.07 | 2.74
323 K, x1 = 0.08 | 2.6
323 K, x1 = 0.1 | 2.41
323 K, x1 = 0.12 | 2.07
323 K, x1 = 0.15 | 1.69
328 K, x1 = 0.01 | 1.69
328 K, x1 = 0.02 | 2.42
328 K, x1 = 0.03 | 2.82
328 K, x1 = 0.06 | 2.93
328 K, x1 = 0.07 | 2.87
328 K, x1 = 0.08 | 2.74
328 K, x1 = 0.1 | 2.55
328 K, x1 = 0.15 | 1.82
328 K, x1 = 0.2 | 1.34
333 K, x1 = 0.05 | 3.08
333 K, x1 = 0.06 | 3.06
333 K, x1 = 0.08 | 2.88
333 K, x1 = 0.1 | 2.69
333 K, x1 = 0.12 | 2.32
333 K, x1 = 0.15 | 1.94
333 K, x1 = 0.2 | 1.46
338 K, x1 = 0.01 | 1.8
338 K, x1 = 0.02 | 2.59
338 K, x1 = 0.03 | 3.03
338 K, x1 = 0.06 | 3.21
338 K, x1 = 0.08 | 3.02
338 K, x1 = 0.1 | 2.83
338 K, x1 = 0.12 | 2.46
338 K, x1 = 0.15 | 2.06
338 K, x1 = 0.2 | 1.57
343 K, x1 = 0.01 | 1.86
343 K, x1 = 0.02 | 2.67
343 K, x1 = 0.03 | 3.14
343 K, x1 = 0.05 | 3.33
343 K, x1 = 0.06 | 3.34
343 K, x1 = 0.1 | 2.96
343 K, x1 = 0.12 | 2.6
343 K, x1 = 0.2 | 1.7
348 K, x1 = 0.01 | 1.91
348 K, x1 = 0.03 | 3.24
348 K, x1 = 0.05 | 3.45
348 K, x1 = 0.06 | 3.46
348 K, x1 = 0.1 | 3.11
348 K, x1 = 0.15 | 2.32
348 K, x1 = 0.2 | 1.81
